The test system of one assay is HepG2 cells. Description: MTT cytotoxicity, HepG2. It is filed as cell-based. To be noted: read-out: Cancer Cells IC50, HepG2. On the procedure:
(§1) All of the cell lines were obtained from the American Type Culture Collection (ATCC, Manassas, VA, USA) and grown in DMEM or RPMI culture medium containing 10% fetal bovine serum (v/v) in 5% CO2 at 37 °C. Confluent cells in good state were cultured in 96-well plates (5–10 × 10^4 cells/mL). After cells were attached to the plate, compounds with various concentrations were applied at 37 °C for 72 h. […] The supernatant was removed, and the cells were dissolved in 100 μL dimethyl sulfoxide and shaken for 5 min.

Another assay has as its system MCF-7 cells. Description: MTT cytotoxicity, MCF-7. It counts as cell-based, human. To be noted: 72 h, mean values. On the procedure: (§2) All of the cell lines were obtained from the American Type Culture Collection (ATCC, Manassas, VA, USA) and grown in DMEM or RPMI culture medium containing 10% fetal bovine serum (v/v) in 5% CO2 at 37 °C.
(§3) Confluent cells in good state were cultured in 96-well plates (5–10 × 10^4 cells/mL). After cells were attached to the plate, compounds with various concentrations were applied at 37 °C for 72 h. Then, the cells were incubated with 10 μL of 5 mg/mL MTT reagent at 37 °C for 4 h. The supernatant was removed, and the cells were dissolved in 100 μL dimethyl sulfoxide and shaken for 5 min. Finally, the light absorption (OD) of the dissolved cells was measured at […].

In assay [1] the test system is Nur77. The assay can be described thus: Western blot of Nur77 expression. It is filed as cell-based, human. To be noted: HGC-27 cells, concentration gradient. The method, then:
(§4) Equal amounts of the lysates were electrophoresed on 10% SDS-PAGE gel and transferred onto PVDF membranes. After blocked with 5% nonfat milk in TBST (50 mM Tris-HCl (pH 7.4), 150 mM NaCl and 0.1% Tween 20) for 1 h, the membranes were incubated with various primary antibodies overnight and secondary antibodies for 3 h, finally detected using an ECL system. The blots were captured with ChemiDoc XRS+System (Bio-Rad, Hercules, CA, USA).
In general terms: Immunoblotting shows a protein as a band on a membrane.

The next assay has as its system MDA-MB231 cells. The assay can be described thus: MTT cytotoxicity, MDA-MB231. It is filed as cell-based. To be noted: read-out: Cancer Cells IC50, MDA-MB231. The method, then:
as §1

Another assay concerns MRC-5 cells. The assay can be described thus: MTT cytotoxicity, MRC-5 normal cells. It counts as cell-based. The method, then:
as §1

The subject of a further assay is A875 cells. Description: MTT cytotoxicity, A875. It counts as cell-based. The conditions noted are these: read-out: Cancer Cells IC50, A875. The method, then:
as §1

Another assay concerns LO2 cells. Description: MTT cytotoxicity, LO2 normal cells. It counts as cell-based. The method, then:
as §1

In assay [2] the test system is HGC-27 cells. The assay can be described thus: MTT cytotoxicity, HGC-27. It counts as cell-based, human. To be noted: 72 h, mean values. On the procedure:
as §2, §3

The next assay deals with H460 cells. Description: MTT cytotoxicity, H460. It counts as cell-based. The conditions noted are these: read-out: Cancer Cells IC50, H460. On the procedure:
as §1

Assay [3] concerns HGC-27 cells. The assay can be described thus: Flow cytometry cell cycle assay. The conditions noted are these: 8 h of treatment. It counts as cell-based, human. The arrangement: dose or concentration left out as unconfirmed. The method, then: Flow cytometry analysis was applied for cell cycle detection. Firstly, HGC-27 cell was adjusted to 1 × 10^6/mL, inoculated into a six-well plate and placed in an incubator at 37 °C containing 5% CO2 saturated humidity overnight. After the cells were fully attached to the plate, […] 9u and 9h were administrated to the cells for 8 h. After cells were collected and fixed with 70% ethanol, DAPI was applied to stain the cells at the final concentration of 1 μg/mL; subsequently, on-board testing by flow cytometry (Cytoflex S (Beckman Coulter, Brea, CA, USA)) was conducted.

For another assay, the system named is A549 cells. The assay can be described thus: MTT cytotoxicity, A549. The conditions noted are these: read-out: Cancer Cells IC50, A549. It is filed as cell-based. The method, then: as §1
The subject of a further assay is cleaved PARP. Description: Western blot of cleaved PARP. It counts as cell-based, human. To be noted: HGC-27 cells, different times and concentrations, 24 h. The method, then: as §4
In the next assay the test system is HeLa cells. Description: MTT cytotoxicity, HeLa. It counts as cell-based, human. The conditions noted are these: 72 h, mean values. On the procedure:
as §2, §3

Assay [4] concerns the target T1, Nur77 (Homo sapiens, UniProt P22736).
T1 construct: endogenous in cells; host or cells: HGC-27
Description: Nur77 localization by nuclear-cytosol fractionation and immunofluorescence. It is filed as cell-based. To be noted: HGC-27 cells, 3 h, 10 µM for immunofluorescence. The method, then: Cells in the logarithmic phase of growth were seeded in 6-cm dishes; after, apposition cells were treated with compound 9h for 3 h. The medium was discarded and washed twice with pre-chilled PBS, then the cells were scraped off with a cytoscraper and collected into 1.5 mL centrifuge tubes and centrifuged at 1500 rpm for 3 min. Next, 80 μL of Buffer B (containing 100× protease inhibitor) were added for 20 min in an ice bath, followed by 20 μL of Buffer B containing 1% TritonX-100. The mixture was vortexed for 10 s, centrifuged at 10,000× g for 15 min at 4 °C, the supernatant collected as cytoplasmic proteins and the precipitate as the nuclear fraction. Then, 100 μL of Buffer C containing 0.4% TritonX-100 were added and centrifuged for 15 min at 4 °C, and 100 uL of Buffer C containing 0.4% TritonX-100 were added and vortexed for 30 min at 4 °C, centrifuged at 15,000× g for 15 min at 4 °C, and the supernatant was the nucleus protein.
The cells were inoculated into the culture dish with preplaced treated coverslips, and the coverslips were removed when the cells were close to growing into a monolayer. Then, they were washed twice with PBS and 4% paraformaldehyde was used to fix the cells for 30 min. The cells were permeabilized with 1‰ TritonX-100 for 10 min. […] One drop of blocker containing DAPI dye was added and the slice sealed and this was examined by fluorescence microscopy.

Assay [5] deals with HGC-27 cells. Description: Colony formation assay. It is filed as cell-based, human. To be noted: treatment for two weeks, 5 μM and 10 μM, dose-dependent. On the procedure:
HGC-27 cells were cultured in a six-well plate (500 cells/well) and treated with 9u and 9h in 10% serum medium for two weeks, then fixed with methanol at room temperature and stained with 0.1% crystal violet, and images were scanned with a scanner.

A value given as a limit tells only on which side of the number the result lay.

T1 sequence (P22736 whole entry): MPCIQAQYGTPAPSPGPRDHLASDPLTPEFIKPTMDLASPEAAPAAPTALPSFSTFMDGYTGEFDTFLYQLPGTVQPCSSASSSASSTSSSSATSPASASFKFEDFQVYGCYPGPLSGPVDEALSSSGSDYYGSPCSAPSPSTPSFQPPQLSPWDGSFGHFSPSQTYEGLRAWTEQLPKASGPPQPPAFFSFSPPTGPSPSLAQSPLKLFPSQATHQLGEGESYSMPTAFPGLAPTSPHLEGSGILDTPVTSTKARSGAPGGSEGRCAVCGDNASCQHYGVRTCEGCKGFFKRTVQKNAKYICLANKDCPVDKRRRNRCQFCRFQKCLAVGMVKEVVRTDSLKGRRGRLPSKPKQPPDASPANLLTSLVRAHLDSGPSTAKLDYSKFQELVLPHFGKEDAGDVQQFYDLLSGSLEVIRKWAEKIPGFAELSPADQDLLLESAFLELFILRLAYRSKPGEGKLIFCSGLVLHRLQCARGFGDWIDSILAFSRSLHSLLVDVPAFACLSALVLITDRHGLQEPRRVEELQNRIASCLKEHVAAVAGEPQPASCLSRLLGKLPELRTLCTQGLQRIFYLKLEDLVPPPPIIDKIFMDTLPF

The term IC50 denotes the concentration at which inhibition is half-maximal. For the substance “4-(2-Chlorophenyl)-1-(2-(6-methoxynaphthalen-2-yl)-6-methylnicotinoyl)semicarbazide [Compound 9h]”, the IC50 with HepG2 cells was 5.1 ± 0.01 µM; with MCF-7 cells, 3.3 ± 0.21 µM; with MDA-MB231 cells, 4.3 ± 0.33 µM; with MRC-5 cells it was greater than 50 µM; in the assay on A875 cells, greater than 50 µM; in the assay with LO2 cells, greater than 50 µM. The IC50 in the assay on HGC-27 cells [2] amounted to 1.4 ± 0.11 µM; in the assay on H460 cells, 9.2 ± 0.24 µM; in the assay with A549 cells, 7.3 ± 0.21 µM; in the assay with HeLa cells, 4.12 ± 0.08 µM. Besides, the Nur77 expression result in the assay with Nur77 [1] was “induced Nur77 expression”. Besides, the “Effect on cell cycle” value with HGC-27 cells [3] was “induced cell cycle blockage in G2-M phase”. In addition, the PARP cleavage entry with cleaved PARP was “induce the PARP cleavage in a dose-dependent and time-dependent manner”. On Nur77 [4], the Nur77 nuclear export result was “significantly induced Nur77 nuclear export”. In addition, the “Colony formation of HGC-27 cells” value in the assay with HGC-27 cells [5] was “completely inhibited colony formation”.

(Values after publication PMC8911927, “Synthesis and Biological Evaluation of 1-(2-(6-Methoxynaphthalen-2-yl)-6-methylnicotinoyl)-4-Substituted Semicarbazides/Thiosemicarbazides as Anti-Tumor Nur77 Modulators” (Molecules, 2022).)
